From patent US5747472A, “Therapeutic methods for using ARA-G derivatives” (Glaxo Wellcome Inc., priority 1990, dated 1998)
In brackets after ≈: the same amount, converted by molar mass. Entries after “also recorded” stand apart in the source; their conditions may differ. Read-outs that look alike come from different tables or passages of the source. Blank lines part the entries; values can stand above or below the molecule they belong to.

Columns and labels:
[1] = Solubility in PBS at 25° C.; assay type: physicochemical; details: aqueous buffer, phosphate buffered saline
[2] = Water solubility (statement); assay type: physicochemical; details: in words
[3] = Bioavailability after oral dosing in primates (statement); assay type: in vivo; details: in words
IM9 cells = assay: Inhibition of the growth of B cells (IM9); assay type: cell-based; details: Homo sapiens; for IC50: IM-9; for activity at 10 µM: IM-9, printed in parentheses beside IC50 >10 μM, read-out: % of Control growth
Description: (§1) The compounds of the invention were tested for inhibition of the growth of T cells (Molt 4) compared to B cells (IM9) by the method of Averett, D., Journal of Virological Methods, 23, (1989), 263-276.

[4] = Bioavailability of araG after oral administration to Cynomolgus monkeys (plasma, urine); assay type: in vivo; details: fasted Cynomolgus monkeys, individual animals; for Cmax: read-out: Plasma araG Peak Level
Description: AraG and compounds of the invention were administered orally to Cynomolgus monkeys which had been fasted for eight hours. Each compound was given to two monkeys. The dosage was 94 μmol/kg which is equivalent to 27 mg/kg araG. Blood samples were taken over the following 24 hours, and urine was collected over the same 24 hours. Concentrations of araG in plasma extracts and urine were determined by reverse phase HPLC.

Molt 4 cells = assay: Inhibition of the growth of T cells (Molt 4); assay type: cell-based; details: Homo sapiens
Description: as §1

[5] = system: T cells compared to B cells; T-leukemic cells; details: cited from earlier work
[6] = system: human T-cell line (Molt 4) in contrast to a human B-cell line (IM9); assay: Selective inhibition of T cell growth, Molt 4 compared to IM9; assay type: cell-based; details: Molt 4 vs IM9
Description: as §1

solubility [1]: 92 mM (≈ 31.2 mg/mL)
SMILES: COc1nc(N)nc2c1ncn2[C@@H]1O[C@H](COC(C)=O)[C@@H](O)[C@@H]1O [Example 1b, 9-(5-O-Acetyl-β-D-arabinofuranosyl)-2-amino-6-methoxy-9H-purine]

solubility [1]: 38 mM (≈ 14.5 mg/mL)
SMILES: COc1nc(N)nc2c1ncn2[C@@H]1O[C@H](COC(C)=O)[C@@H](OC(C)=O)[C@@H]1O [Example 2j, 9-(3,5-di-O-Acetyl-β-D-arabinofuranosyl)-2-amino-6-methoxy-9H-purine]

solubility [1]: 4 mM (≈ 1.13 mg/mL) | water solubility [2]: limited water solubility | Plasma araG AUC 0.7 hrs ([4]; 94 μmol/kg, plasma, 420 min): 21.1 µM·h | Cmax ([4]; 94 μmol/kg, plasma): 4.6 µM | Urine % Recovered as araG ([4]; 94 μmol/kg, urine over 24 hours, 1440 min): 4.2% | AUC(0-t) at 7 h ([4]; cynomolgus monkey, plasma, po, 94 umol/kg, plasma, read-out: Plasma araG AUC 0.7 hrs): 20.8 µM·h | Cmax ([4]; cynomolgus monkey, plasma, po, 94 umol/kg, plasma): 6 µM | dose excreted at 24 h ([4]; cynomolgus monkey, urine, po, 94 umol/kg, urine over 24 hours, read-out: Urine % Recovered as araG): 3.9% | IC50 (Molt 4 cells): 1400 ± 80 nM
SMILES: Nc1nc2c(ncn2[C@@H]2O[C@H](CO)[C@@H](O)[C@@H]2O)c(=O)[nH]1 [araG, arabinofuranosyl guanine]
oral bioavailability [3]: low bioavailability after oral dosing in primates | IC50 (IM9 cells): > 10000 nM | activity at 10 µM (IM9 cells): 84% | selective inhibition of growth of T cells / selective cytotoxic activity for T-leukemic cells [5]: selectively inhibits the growth of T cells compared to B cells; also recorded: selective cytotoxic activity for T-leukemic cells

IC50 (Molt 4 cells): 800 ± 100 nM
SMILES: COc1nc(N)nc2c1ncn2[C@@H]1O[C@H](CO)[C@@H](O)[C@@H]1O [compound 1, 2-Amino-6-methoxy-9-(β-D-arabinofuranosyl)-9H-purine]
IC50 (IM9 cells): > 10000 nM | activity at 10 µM (IM9 cells): 85% | selective inhibition of growth of T-cell line vs B-cell line [6]: selectively inhibits the growth of a human T-cell line (Molt 4) in contrast to a human B-cell line (IM9)
